Measurements from patent publication US11713297B2, “Crystalline form of N-butyldeoxygalactonojirimycin” (IDORSIA PHARMACEUTICALS LTD, priority 2017, dated 2023).

How the values were obtained:
[1] = Particle size distribution (PSD) by laser diffraction, wet dispersion; format: physicochemical; settings: crystalline form 1; average of at least five crystallization batches, each measured in triplicate
Text: Particle size distributions are defined herein as D10, D50 and D90. D10, D50 and D90 represent the particle diameter corresponding to the respective percentage in volume (i.e. 10%, 50%, 90%) of a given sample which is below the indicated diameter. For example, a D50 from about 70 μm to about 150 μm means that 50% of the volume of a given sample has a diameter which is equal or below a diameter that is in the range between about 70 μm and about 150 μm. Particle size distributions may be determined using standard procedures such as laser diffraction.
Particle Size Distribution (PSD)
PSD measurements were performed by laser-diffraction using a wet dispersion method. Data were collected on a Mastersizer 2000 (Malvern) equipped with a dispersion unit Hydro 2000S in the size range from 0.020 μm to 2000.000 μm. Typically, about 100 mg sample in about 20 ml Tegiloxan 3 (silicon oil, CAS Nr. 9016-00-6) is dispersed in an ultrasonic bad for about 30 s and subsequently added to a prefilled with Tegiloxan 3 dispersion unit until obscuration of about 10% to about 30% is achieved. After a circulation time of 5 min, a sample measurement is performed. Reported particle size values (D10, D50 and D90) represent an average value of 3 measurements.
Particle size measurements of COMPOUND in crystalline form 1 as obtained in Examples 1, 2 and Reference Example 3 are performed using the method described herein. Each data point in Table 3 represents an average value obtained from at least five separate crystallization batches, each measured in triplicate.

[2] = test system: plasma levels of metabolic substrates; assay: Phase Ib study in patients suffering from Fabry disease; format: in vivo; settings: on top of enzyme replacement therapy
[3] = Gravimetric vapour sorption (GVS) analysis, hygroscopicity; format: physicochemical; settings: crystalline form 1; 25° C.; mass change between 40% and 80% RH in first adsorption scan; European Pharmacopeia 8.0 classification
Protocol: Gravimetric Vapour Sorption (GVS) Analysis
Measurements were performed on a multi sample instrument SPS-100n (Projekt Messtechnik, Ulm, Germany) operated in stepping mode at 25° C. The sample was allowed to equilibrate at 40% RH before starting a pre-defined humidity program (40-0-95-0-95-40% RH, steps of 5% ΔRH and with a maximal equilibration time of 24 hours per step were applied. About 20 to 30 mg of each sample was used. The hygroscopic classification is done according to the European Pharmacopeia 8.0, e.g., slightly hygroscopic: increase in mass is less than 2% and equal to or greater than 0.2% mass/mass; hygroscopic: increase in mass is less than 15% and equal to or greater than 2% mass/mass. The mass change between 40% relative humidity and 80% relative humidity in the first adsorption scan is considered.

[4] = Thermogravimetric analysis (TGA); format: physicochemical; settings: crystalline form 1; in the range 31.5 to 140° C.
Protocol: Thermogravimetric Analysis (TGA)
TGA data were collected on a Mettler Toledo STARe System (TGA851e module and STAR software version 9.20) equipped with a 34-position auto-sampler. Typically, about 5 mg of a sample, in an automatically pierced aluminium pan, was heated at 10° C. min^−1, unless stated otherwise, from 30° C. to 250° C. A nitrogen purge at 10 ml min^−1 was maintained over the sample.

Row | D10 [1] [μm] | D50 [1] [μm] | D90 [1] [μm] | Hygroscopicity [3] | TGA mass loss [4] | Compound | plasma levels of metabolic substrates thought to be related to the development of the disease [2]
1 | 7 | 22 | 42 |  |  | CCCCN1C[C@H](O)[C@@H](O)[C@@H](O)[C@H]1CO [Reference Example 3, (2R,3S,4R,5S)-1-butyl-2-(hydroxymethyl)piperidine-3,4,5-triol] | 
2 | 7 | 57 | 138 |  |  | CCCCN1C[C@H](O)[C@@H](O)[C@@H](O)[C@H]1CO [Example 2, (2R,3S,4R,5S)-1-butyl-2-(hydroxymethyl)piperidine-3,4,5-triol] | 
3 |  |  |  | Not hygroscopic | Mass loss of <0.1% in the range | CCCCN1C[C@H](O)[C@@H](O)[C@@H](O)[C@H]1CO [COMPOUND, (2R,3S,4R,5S)-1-butyl-2-(hydroxymethyl)piperidine-3,4,5-triol] | marked decrease
